Experimental data as given in publication PMC10378394 (Current Issues in Molecular Biology, 2023).

What was measured:
PKCζ(h) = PKCζ(h) (Homo sapiens, UniProt Q05513); experiment: Eurofins kinase assay
Rsk3(h) = Rsk3(h) (Homo sapiens, UniProt Q15349); experiment: Eurofins kinase assay
PKCβII(h) = PKCβII(h) (Homo sapiens, UniProt P05771); experiment: Eurofins kinase assay
Rsk1(r) = Rsk1(r) (Rattus norvegicus, UniProt Q63531); experiment: Eurofins kinase assay
CaMKIIβ(h) = CaMKIIβ(h) (Homo sapiens, UniProt Q13554); experiment: Eurofins kinase assay
[1] = test system: LS513 (KRAS G12D) xenograft; experiment: In vivo efficacy, xenograft; design: species or system BALB/c nude mice; conditions: day 17
Protocol: (§1) Human-derived colorectal cancer cell lines, LS513, HCT-116, and HT29, were subcutaneously transplanted into 6-week-old female BALB/c nude mice to establish tumor models. Additionally, the mouse cancer cell line MC38 was subcutaneously transplanted into 6-week-old female and C57BL/6 mice to induce tumor formation. […]. The treatments were administered orally once daily for 2 weeks based on the growth rate observed in the vehicle group. Tumor volume was evaluated three times a week using the formula Tumor volume (TV) = (tumor short diameter ^2 × tumor long diameter)/2. The body weight of the mice was measured three times a week to assess potential toxicity in vivo. […]

[2] = test system: HCT116 (KRAS G13D) xenograft; experiment: In vivo efficacy, xenograft; design: species or system BALB/c nude mice; conditions: 16 days
Protocol: as §1

[3] = test system: HT29 (BRAF V600E) xenograft; experiment: In vivo efficacy, xenograft; design: species or system BALB/c nude mice
Protocol: as §1

p70S6K(h) = p70S6K(h) (Homo sapiens, UniProt P23443); experiment: Eurofins kinase assay
MAPK1(h) = MAPK1(h) (Homo sapiens, UniProt P27361); experiment: Eurofins kinase assay
CDK7/cyclinH/MAT1(h) = CDK7/cyclinH/MAT1(h) (Homo sapiens, UniProt P50613); experiment: Eurofins kinase assay
PKCμ(h) = PKCμ(h) (Homo sapiens, UniProt Q15139); experiment: Eurofins kinase assay
MC38 tumor tissue = experiment: Immunofluorescence of tumor tissue; format: in vivo, mouse; conditions: MC38 tumors of treated mice
Protocol: Immunofluorescence staining was performed on tumor tissues. First, tumor tissue fixation was performed using 4% paraformaldehyde (Sigma-Aldrich, #HT5011). Next, heat-induced epitope retrieval was performed by incubating the tissue in 10 mM sodium citrate for 10 min. Subsequently, permeabilization was achieved by treating the tissue with 0.2% Triton X-100 (Sigma-Aldrich, #X100) for 5 min. To block nonspecific binding, the tissue was incubated in 5% skim milk for 40 min. Primary antibodies, including FOXP3 (eBioscience, San Diego, CA, USA, #11-5773-82), CD8 (eBioscience #53-0081-82), CD31 (Abcam, Cambridge, UK, #ab28364), F480 (Abcam #ab6640), CD163 (Abcam #ab182422), and CD206 (Abcam #ab64693), were used. The secondary antibodies used were FITC-conjugated AffiniPure F(ab’)2 fragment goat anti-rat IgG (H + L) (Jackson ImmunoResearch, West Grove, PA, USA, #112-096-003) and Cy3-conjugated AffiniPure F(ab’)2 fragment goat anti-rabbit IgG (H + L) (Jackson ImmunoResearch #111-166-003). The stained tissue was mounted using ProLong™ Gold Antifade Mountant with DAPI (Invitrogen, Waltham, MA, USA) #14-5773-82). Fluorescent images of the samples were captured using the Agilent BioTek Cytation 1 device. The images were analyzed using the Gen5 program (Version3, BioTek, Winooski, VT, USA) to extract relevant data and perform quantitative analysis.

SW620 (KRAS G12V) = experiment: Cell proliferation assay (CellTiter-Glo); conditions: Homo sapiens, SW-620, 72 h
Protocol: To assess cell viability, the CellTiter-Glo Luminescent Cell Viability Assay Reagent (Promega, Fitchburg, WI, USA) was added to each well. The assay measured ATP levels as an indicator of cell viability. All data points were normalized to the control samples treated with dimethyl sulfoxide when determining IC50 values. Statistical calculations and data analysis, including IC50 determination, were performed using GraphPad Prism software.

PDGFRα(h) = PDGFRα(h) (Homo sapiens, UniProt P16234); experiment: Eurofins kinase assay
PDGFRα(h), sequence (P16234 24-1089): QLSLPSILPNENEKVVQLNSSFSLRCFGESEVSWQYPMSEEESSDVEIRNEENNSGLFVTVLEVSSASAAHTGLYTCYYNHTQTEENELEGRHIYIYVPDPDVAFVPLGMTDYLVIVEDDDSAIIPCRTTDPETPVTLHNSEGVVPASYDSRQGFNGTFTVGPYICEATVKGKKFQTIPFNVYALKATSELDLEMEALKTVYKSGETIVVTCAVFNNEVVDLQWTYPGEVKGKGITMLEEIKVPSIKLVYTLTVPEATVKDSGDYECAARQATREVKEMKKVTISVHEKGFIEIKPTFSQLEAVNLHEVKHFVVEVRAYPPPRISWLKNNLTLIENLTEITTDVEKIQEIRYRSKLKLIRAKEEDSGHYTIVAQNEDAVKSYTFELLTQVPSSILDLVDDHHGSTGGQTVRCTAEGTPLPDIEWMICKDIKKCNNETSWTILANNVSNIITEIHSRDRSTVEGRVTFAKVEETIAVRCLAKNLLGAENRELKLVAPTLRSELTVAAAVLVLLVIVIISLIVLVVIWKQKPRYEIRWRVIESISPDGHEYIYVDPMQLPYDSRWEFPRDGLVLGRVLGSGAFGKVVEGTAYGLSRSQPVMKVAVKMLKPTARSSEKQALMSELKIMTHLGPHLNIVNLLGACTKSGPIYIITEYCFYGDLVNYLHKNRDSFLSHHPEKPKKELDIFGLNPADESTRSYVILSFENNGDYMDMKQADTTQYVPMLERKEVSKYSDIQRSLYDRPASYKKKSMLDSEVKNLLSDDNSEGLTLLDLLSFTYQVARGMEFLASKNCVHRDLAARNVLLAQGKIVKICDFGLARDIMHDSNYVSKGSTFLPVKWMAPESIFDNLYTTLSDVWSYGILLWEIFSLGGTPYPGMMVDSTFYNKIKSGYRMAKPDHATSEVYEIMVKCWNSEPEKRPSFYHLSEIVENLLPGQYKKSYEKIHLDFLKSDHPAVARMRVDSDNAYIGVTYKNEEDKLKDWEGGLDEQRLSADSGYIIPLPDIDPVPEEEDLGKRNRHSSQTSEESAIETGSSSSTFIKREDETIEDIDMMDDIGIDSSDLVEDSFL

CaMKIIβ(h), sequence (Q13554 whole entry): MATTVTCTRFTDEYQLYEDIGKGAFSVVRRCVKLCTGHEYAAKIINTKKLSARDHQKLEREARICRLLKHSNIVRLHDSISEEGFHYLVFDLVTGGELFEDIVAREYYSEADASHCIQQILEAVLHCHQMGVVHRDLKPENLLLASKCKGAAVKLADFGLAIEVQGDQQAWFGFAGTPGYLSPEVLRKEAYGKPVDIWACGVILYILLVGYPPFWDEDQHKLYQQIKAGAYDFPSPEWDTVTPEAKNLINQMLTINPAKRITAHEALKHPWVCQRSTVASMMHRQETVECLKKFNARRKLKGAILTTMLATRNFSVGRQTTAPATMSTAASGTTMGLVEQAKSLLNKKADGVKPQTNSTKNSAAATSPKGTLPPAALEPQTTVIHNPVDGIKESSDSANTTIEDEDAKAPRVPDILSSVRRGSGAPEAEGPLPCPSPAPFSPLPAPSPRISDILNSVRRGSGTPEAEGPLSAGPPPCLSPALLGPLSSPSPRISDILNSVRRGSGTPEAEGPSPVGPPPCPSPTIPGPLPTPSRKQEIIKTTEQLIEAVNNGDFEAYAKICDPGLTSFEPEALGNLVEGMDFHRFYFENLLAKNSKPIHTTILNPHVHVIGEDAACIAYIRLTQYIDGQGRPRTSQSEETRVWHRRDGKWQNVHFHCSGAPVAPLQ
PKCβII(h), sequence (P05771 1-673 isoform P05771-2): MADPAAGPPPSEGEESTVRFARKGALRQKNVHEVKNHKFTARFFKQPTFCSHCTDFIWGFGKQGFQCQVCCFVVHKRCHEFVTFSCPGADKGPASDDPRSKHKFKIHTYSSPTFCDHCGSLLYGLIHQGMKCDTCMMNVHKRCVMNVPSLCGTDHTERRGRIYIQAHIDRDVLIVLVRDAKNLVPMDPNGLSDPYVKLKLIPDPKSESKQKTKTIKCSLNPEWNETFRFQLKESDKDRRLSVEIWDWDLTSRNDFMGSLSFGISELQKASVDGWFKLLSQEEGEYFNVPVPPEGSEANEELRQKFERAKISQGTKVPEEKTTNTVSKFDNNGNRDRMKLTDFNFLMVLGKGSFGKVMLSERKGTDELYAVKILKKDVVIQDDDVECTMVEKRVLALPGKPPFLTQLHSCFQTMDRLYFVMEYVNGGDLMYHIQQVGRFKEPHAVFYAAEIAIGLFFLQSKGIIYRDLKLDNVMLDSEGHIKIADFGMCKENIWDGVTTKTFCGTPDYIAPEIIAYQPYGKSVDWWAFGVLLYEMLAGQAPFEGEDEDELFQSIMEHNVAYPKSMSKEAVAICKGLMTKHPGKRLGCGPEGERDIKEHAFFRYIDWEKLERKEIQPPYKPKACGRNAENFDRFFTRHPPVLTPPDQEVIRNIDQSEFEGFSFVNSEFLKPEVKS
p70S6K(h), sequence (P23443 whole entry): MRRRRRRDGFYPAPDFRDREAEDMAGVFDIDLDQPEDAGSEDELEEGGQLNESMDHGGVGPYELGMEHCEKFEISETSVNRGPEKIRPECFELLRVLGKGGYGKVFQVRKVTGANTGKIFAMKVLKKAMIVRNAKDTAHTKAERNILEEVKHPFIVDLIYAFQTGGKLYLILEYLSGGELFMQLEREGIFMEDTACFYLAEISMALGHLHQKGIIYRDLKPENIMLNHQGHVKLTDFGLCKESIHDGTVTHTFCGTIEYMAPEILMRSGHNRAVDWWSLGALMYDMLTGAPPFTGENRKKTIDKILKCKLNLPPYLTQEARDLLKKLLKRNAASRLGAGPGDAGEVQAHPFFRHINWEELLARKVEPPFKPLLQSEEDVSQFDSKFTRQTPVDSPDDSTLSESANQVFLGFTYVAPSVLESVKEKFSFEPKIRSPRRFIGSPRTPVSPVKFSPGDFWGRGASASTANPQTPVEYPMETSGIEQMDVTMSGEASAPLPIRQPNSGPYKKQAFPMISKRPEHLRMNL
PKCζ(h), sequence (Q05513 whole entry): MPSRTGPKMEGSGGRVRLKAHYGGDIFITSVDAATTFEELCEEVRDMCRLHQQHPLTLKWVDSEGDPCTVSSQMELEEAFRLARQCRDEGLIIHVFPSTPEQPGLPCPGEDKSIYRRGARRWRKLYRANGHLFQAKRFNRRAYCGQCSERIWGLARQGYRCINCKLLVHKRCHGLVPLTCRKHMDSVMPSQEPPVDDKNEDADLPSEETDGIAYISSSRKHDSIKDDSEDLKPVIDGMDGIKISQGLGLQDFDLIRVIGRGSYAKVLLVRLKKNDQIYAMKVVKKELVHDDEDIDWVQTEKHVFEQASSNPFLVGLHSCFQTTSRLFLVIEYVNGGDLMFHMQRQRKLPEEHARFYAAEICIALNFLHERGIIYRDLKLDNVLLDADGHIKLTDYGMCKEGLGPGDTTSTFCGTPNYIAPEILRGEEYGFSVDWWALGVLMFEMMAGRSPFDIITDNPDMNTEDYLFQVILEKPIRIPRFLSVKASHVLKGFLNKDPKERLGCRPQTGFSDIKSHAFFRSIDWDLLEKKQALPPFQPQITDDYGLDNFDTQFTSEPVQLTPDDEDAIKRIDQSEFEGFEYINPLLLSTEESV
CDK7/cyclinH/MAT1(h), sequence (P50613 whole entry): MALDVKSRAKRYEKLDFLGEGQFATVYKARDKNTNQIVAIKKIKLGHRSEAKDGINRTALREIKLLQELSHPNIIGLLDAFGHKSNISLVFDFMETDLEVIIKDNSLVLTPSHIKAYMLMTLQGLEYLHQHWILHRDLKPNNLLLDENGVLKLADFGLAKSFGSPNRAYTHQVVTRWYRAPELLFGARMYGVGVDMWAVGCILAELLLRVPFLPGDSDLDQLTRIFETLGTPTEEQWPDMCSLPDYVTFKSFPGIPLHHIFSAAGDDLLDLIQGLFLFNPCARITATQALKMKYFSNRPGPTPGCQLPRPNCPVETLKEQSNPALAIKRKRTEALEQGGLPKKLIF
CDK7/cyclinH/MAT1(h), sequence (P51946 whole entry partner): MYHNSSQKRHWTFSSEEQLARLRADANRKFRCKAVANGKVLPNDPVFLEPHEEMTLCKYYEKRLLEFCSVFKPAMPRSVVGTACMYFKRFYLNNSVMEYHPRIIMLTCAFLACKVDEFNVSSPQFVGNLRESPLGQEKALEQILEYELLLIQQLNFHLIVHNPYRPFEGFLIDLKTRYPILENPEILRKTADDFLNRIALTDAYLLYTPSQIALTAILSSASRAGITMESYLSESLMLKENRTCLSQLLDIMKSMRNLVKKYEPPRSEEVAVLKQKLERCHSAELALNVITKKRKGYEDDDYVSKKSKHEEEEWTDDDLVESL
CDK7/cyclinH/MAT1(h), sequence (P51948 whole entry partner): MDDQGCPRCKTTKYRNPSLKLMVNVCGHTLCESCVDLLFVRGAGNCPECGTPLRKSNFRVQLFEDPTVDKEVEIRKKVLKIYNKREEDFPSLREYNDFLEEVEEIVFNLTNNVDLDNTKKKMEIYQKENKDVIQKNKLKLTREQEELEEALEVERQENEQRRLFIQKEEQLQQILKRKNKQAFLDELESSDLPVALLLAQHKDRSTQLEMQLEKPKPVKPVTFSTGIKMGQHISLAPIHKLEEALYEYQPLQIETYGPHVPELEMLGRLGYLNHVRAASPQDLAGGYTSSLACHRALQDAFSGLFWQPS
MAPK1(h), sequence (P27361 whole entry): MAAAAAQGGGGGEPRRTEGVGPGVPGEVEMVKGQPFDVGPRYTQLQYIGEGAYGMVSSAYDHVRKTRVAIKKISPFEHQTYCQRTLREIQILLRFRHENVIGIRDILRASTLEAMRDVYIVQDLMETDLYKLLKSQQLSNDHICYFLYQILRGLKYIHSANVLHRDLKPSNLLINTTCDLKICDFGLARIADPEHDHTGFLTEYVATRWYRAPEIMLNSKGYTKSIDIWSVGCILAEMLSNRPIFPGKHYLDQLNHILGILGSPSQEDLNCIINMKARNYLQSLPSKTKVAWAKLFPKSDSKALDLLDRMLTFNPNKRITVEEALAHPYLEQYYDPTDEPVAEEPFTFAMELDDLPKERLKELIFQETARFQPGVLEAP

O=C(Nc1cc(Nc2ncccc2-c2ncnc3[nH]cnc23)ccc1F)c1cc(C(F)(F)F)cc(C(F)(F)F)c1 [SJ-C1044, N-(5-(3-(9H-purin-6-yl)pyridin-2-ylamino)-2-fluorophenyl)-3,5-bis(trifluoromethyl)benzamide]
inhibition at 10 µM (PKCζ(h)): 1% | inhibition at 10 µM (Rsk3(h)): 4% | inhibition at 10 µM (PKCβII(h)): 10% | inhibition at 10 µM (Rsk1(r)): -12% | inhibition at 10 µM (CaMKIIβ(h)): -5% | TGI ([1]; 20 mg/kg po QD): 50% | TGI ([1]; 40 mg/kg po QD): 63% | TGI ([1]; 80 mg/kg po QD): 66% | TGI ([2]; 20 mg/kg po QD): 72% | TGI ([2]; 40 mg/kg po QD): 87% | TGI ([2]; 80 mg/kg po QD): 107% | TGI ([3]; 20 mg/kg po QD): 58% | TGI ([3]; 40 mg/kg po QD): 94% | TGI ([3]; 80 mg/kg po QD): 117% | inhibition at 10 µM (p70S6K(h)): 8% | inhibition at 10 µM (MAPK1(h)): -3% | inhibition at 10 µM (CDK7/cyclinH/MAT1(h)): 10% | inhibition at 10 µM (PKCμ(h)): -3% | CD31 staining (angiogenesis) (MC38 tumor tissue): reduced | CD163+ or CD206+ staining (M2 macrophages) (MC38 tumor tissue): significant decrease | F4/80+ staining intensity (pan macrophage marker) (MC38 tumor tissue): notably reduced | infiltration of CD8+ T cells (MC38 tumor tissue): increase | population of FOXP3+ cells (MC38 tumor tissue): reducing | GI50 (SW620 (KRAS G12V)): 628 nM | inhibition at 10 µM (PDGFRα(h)): -10%
